# Assay results from the supplement of paper PMC10307832.
# Experiments:
# Assay in all cases: relative viability (nuclei count vs DMSO), 5 days (fraction); higher = more cells survive
# [1] = compound: CC1=C(C(=O)N2C=CSC2=N1)CCN3CCC(=C(C4=CC=CC=C4)C5=CC=C(C=C5)F)CC3 + CCNC(=O)c1noc(-c2cc(C(C)C)c(O)cc2O)c1-c1ccc(CN2CCOCC2)cc1 [Luminespib] (partner 0.01 µM)
# How it was run: (§1)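 Values are medians from duplicate plates. Each reflects relative viability, defined as the nuclei count of treated wells over that of vehicle wells. Lung cancer cell lines in 1536-well plates were pin-tool dosed one day after seeding with one drug alone or with a fixed anchor-drug dose plus five library-drug doses (not always all listed) in √10 steps, then fixed, stained and imaged at 4× after 5 days.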
# [2] = compound: CC1=C(C(=O)N2C=CSC2=N1)CCN3CCC(=C(C4=CC=CC=C4)C5=CC=C(C=C5)F)CC3 + CS(=O)(=O)CCNCc1ccc(-c2ccc3ncnc(Nc4ccc(OCc5cccc(F)c5)c(Cl)c4)c3c2)o1 [Lapatinib] (partner 2 µM)
# How it was run: as §1
# [3] = compound: CC1=C(C(=O)N2C=CSC2=N1)CCN3CCC(=C(C4=CC=CC=C4)C5=CC=C(C=C5)F)CC3 + Nc1ncn([C@H]2C[C@H](O)[C@@H](CO)O2)c(=O)n1 [Decitabine] (partner 2 µM)
# How it was run: as §1
# [4] = compound: CC1=C(C(=O)N2C=CSC2=N1)CCN3CCC(=C(C4=CC=CC=C4)C5=CC=C(C=C5)F)CC3 + O=C(c1cc(Cc2n[nH]c(=O)c3ccccc23)ccc1F)N1CCN(C(=O)C2CC2)CC1 [Olaparib] (partner 8 µM)
# How it was run: as §1
Cell Line,relative viability ([1]; first compound 0.08 µM),relative viability ([1]; first compound 0.253 µM),relative viability ([1]; first compound 0.8 µM),relative viability ([1]; first compound 2.53 µM),relative viability ([1]; first compound 8 µM),relative viability ([2]; first compound 0.08 µM),relative viability ([2]; first compound 0.253 µM),relative viability ([2]; first compound 0.8 µM),relative viability ([2]; first compound 2.53 µM),relative viability ([2]; first compound 8 µM),relative viability ([3]; first compound 0.08 µM),relative viability ([3]; first compound 0.253 µM),relative viability ([3]; first compound 0.8 µM),relative viability ([3]; first compound 2.53 µM),relative viability ([3]; first compound 8 µM),relative viability ([4]; first compound 0.08 µM),relative viability ([4]; first compound 0.253 µM),relative viability ([4]; first compound 0.8 µM),relative viability ([4]; first compound 2.53 µM),relative viability ([4]; first compound 8 µM)
LU99A,0.274,0.262,0.282,0.205,0.259,0.894,1.04,0.998,1.06,0.835,1.18,0.988,0.763,0.989,0.907,0.151,0.244,0.234,0.254,0.227
SK-MES-1,0.947,0.832,0.689,0.931,0.594,0.453,0.537,0.478,0.437,0.481,0.572,0.391,0.375,0.461,0.353,0.961,0.583,0.725,0.827,0.64
A-427,0.91,0.919,0.923,1.15,0.88,1.12,0.962,0.994,1.15,1.08,0.452,0.654,0.546,0.592,0.595,0.779,0.74,0.723,0.803,0.658
NCI-H727,0.284,0.668,0.346,0.331,0.38,0.778,0.674,0.757,0.984,0.553,0.861,0.974,0.888,1.03,0.792,0.86,0.734,0.667,0.689,0.599
HCC-827,0.742,0.606,0.552,0.781,0.342,0.198,0.189,0.201,0.196,0.188,0.285,0.335,0.308,0.33,0.322,0.655,0.626,0.718,0.637,0.667
NCI-H2087,0.132,0.208,0.22,0.185,0.142,1.13,0.88,1.07,1.23,0.843,0.245,0.236,0.255,0.286,0.191,0.564,0.559,0.57,0.756,0.445
NCI-H1792,0.354,0.444,0.585,0.379,0.349,1.02,0.401,0.931,0.921,0.489,0.312,0.561,0.614,0.426,0.19,0.318,0.357,0.631,0.603,0.348
LXF-289,0.513,0.713,0.599,0.839,0.529,0.98,0.953,0.926,0.907,0.844,0.381,0.43,0.406,0.426,0.349,0.987,1.32,1.07,1,0.635
NCI-H1915,1.01,0.655,0.797,0.656,0.499,1.22,1.07,0.959,1.12,0.691,0.305,0.277,0.265,0.253,0.257,0.254,0.272,0.284,0.238,0.223
NCI-H1993,0.79,0.841,0.916,0.897,0.768,0.801,–,0.886,0.706,0.808,0.635,0.644,0.6,0.64,0.576,1,0.944,1.01,1.3,0.838
HARA,0.682,0.73,0.688,0.477,0.426,1.01,1.06,0.873,0.82,0.625,0.639,0.664,0.526,0.515,0.427,0.761,0.779,0.821,0.755,0.774
NCI-H23,0.205,0.207,0.22,0.23,0.241,0.932,0.829,1.04,1.35,0.621,0.355,0.308,0.332,0.323,0.119,0.287,0.281,0.274,0.276,0.23
BEN,0.439,0.33,0.308,0.308,0.35,0.507,0.626,0.798,0.757,0.53,0.807,0.703,0.702,0.737,0.708,1.07,1.22,1.09,1.06,0.89
COR-L23,0.61,0.831,0.785,0.671,0.504,1.13,1.1,1.12,0.921,0.638,0.415,0.498,0.405,0.484,0.368,0.311,0.32,0.344,0.376,0.31
ABC-1,0.743,0.607,0.429,0.329,0.564,1.11,1.18,1.14,1.3,0.674,1.2,–,1.04,1.18,1.02,0.836,–,0.99,1.01,0.536
NCI-H2170,0.516,0.733,0.745,0.838,0.537,0.274,0.268,0.276,0.278,0.274,0.522,0.461,0.487,0.457,0.395,0.674,0.538,0.635,0.717,0.394
